Data set [1] deals with PDE10A (Rattus norvegicus, UniProt Q9QYJ6). The conditions noted are these: by 30 min p.i.
A short description of another data set: Biodistribution in rats. Type of data set: in vivo, male Sprague-Dawley rats. The conditions noted are these: rat; for in vivo metabolic defluorination (bone activity): 5 to 60 min p.i.; for blood uptake / bone uptake / brain uptake / fat uptake / kidney uptake / liver uptake / muscle uptake: iv, mean ± SD, n = 4.
The test system of data set [2] is PDE10A. The conditions noted are these: for ratios of uptake in the striatum vs nontarget brain regions: by 40 min p.i.; for visualization of striatum in microPET: cynomolgus macaque, summed images 0 to 180 min.
The conditions of data set [3]: for radioactivity of arterial blood found in the plasma: plasma separated from packed red cells.
For data set [4] the following is noted: cited from earlier work.
In data set [5] the test system is PDE10A. The conditions noted are these: cited from earlier work.

Molecules are shown by their SMILES. pIC50: −log10 of the molar value. Where two headings read alike, the source gives them in different places.

Sequence of PDE10A (Rattus norvegicus, UniProt Q9QYJ6) (Q9QYJ6 whole entry): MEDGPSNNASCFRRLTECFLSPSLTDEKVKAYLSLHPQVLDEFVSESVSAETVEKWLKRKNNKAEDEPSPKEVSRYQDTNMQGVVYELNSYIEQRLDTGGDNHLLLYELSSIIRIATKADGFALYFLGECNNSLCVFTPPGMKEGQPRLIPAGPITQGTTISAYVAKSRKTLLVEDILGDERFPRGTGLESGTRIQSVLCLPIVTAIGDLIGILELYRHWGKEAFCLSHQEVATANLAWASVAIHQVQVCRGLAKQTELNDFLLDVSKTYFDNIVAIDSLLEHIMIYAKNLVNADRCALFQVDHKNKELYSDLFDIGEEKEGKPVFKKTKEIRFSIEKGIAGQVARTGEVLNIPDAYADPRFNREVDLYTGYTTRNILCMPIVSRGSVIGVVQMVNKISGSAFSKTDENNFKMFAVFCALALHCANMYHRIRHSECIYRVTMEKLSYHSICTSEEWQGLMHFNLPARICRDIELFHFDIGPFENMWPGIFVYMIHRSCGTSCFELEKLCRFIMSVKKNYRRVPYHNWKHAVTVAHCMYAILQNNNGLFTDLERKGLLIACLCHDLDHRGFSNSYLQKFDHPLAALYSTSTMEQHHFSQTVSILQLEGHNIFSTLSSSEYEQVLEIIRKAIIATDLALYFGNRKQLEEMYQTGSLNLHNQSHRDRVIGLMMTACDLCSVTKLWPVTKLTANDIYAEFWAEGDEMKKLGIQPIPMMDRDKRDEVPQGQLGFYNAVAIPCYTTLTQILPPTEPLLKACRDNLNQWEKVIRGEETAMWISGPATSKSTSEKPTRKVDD

As to `Cn1cc(-c2ccncc2)c(-c2ccc(OCc3cc(OCC[18F])c4ccccc4n3)cc2)n1` [[^18F]18d, 4-((2-Fluoro-^18F)ethoxy)-2-((4-(1-methyl-4-(pyridin-4-yl)-1H-pyrazol-3-yl)phenoxy)methyl)quinoline], the “ratio of activity in the striatum versus nontarget brain regions” value at PDE10A [1] was over 2 fold. In the data set “Biodistribution in rats”, the “in vivo metabolic defluorination (bone activity)” value is “appeared more stable to in vivo defluorination”. Besides, in “Biodistribution in rats” (5 min p.i.), the blood uptake turned out to be 0.362 ± 0.048 %ID/g, the bone uptake is recorded as 0.189 ± 0.004 %ID/g, the brain uptake turned out to be 0.118 ± 0.012 %ID/g and the fat uptake is on record as 0.213 ± 0.007 %ID/g. Moreover, in “Biodistribution in rats” (5 min p.i.), the kidney uptake is reported as 2.200 ± 0.158 %ID/g, the liver uptake is 6.88 ± 1.15 %ID/g and the muscle uptake was 0.247 ± 0.031 %ID/g. In the data set “Biodistribution in rats” (30 min p.i.), this molecule had a blood uptake of 0.226 ± 0.073 %ID/g, a bone uptake of 0.091 ± 0.012 %ID/g, a brain uptake of 0.078 ± 0.009 %ID/g and a fat uptake of 0.302 ± 0.033 %ID/g. In the data set “Biodistribution in rats” (30 min p.i.), the kidney uptake is listed as 1.055 ± 0.218 %ID/g, the liver uptake worked out at 6.98 ± 0.99 %ID/g and the muscle uptake is listed as 0.134 ± 0.019 %ID/g. In the data set “Biodistribution in rats” (60 min p.i.), this molecule showed a blood uptake of 0.215 ± 0.008 %ID/g, a bone uptake of 0.142 ± 0.001 %ID/g, a brain uptake of 0.101 ± 0.002 %ID/g and a fat uptake of 0.259 ± 0.025 %ID/g. Moreover, in the data set “Biodistribution in rats” (60 min p.i.), the kidney uptake is reported as 0.765 ± 0.153 %ID/g, the liver uptake came to 3.29 ± 0.56 %ID/g and the muscle uptake is given as 0.132 ± 0.011 %ID/g. The “ratios of uptake in the striatum vs nontarget brain regions” value in the data set with PDE10A [2] (cynomolgus macaque microPET) is over 3 fold. Also, the “visualization of striatum in microPET” value in the data set on PDE10A [2] is on record as “clear visualization of the PDE10A-enriched striatum”. For the same molecule, in data set [3] (NHP plasma, 2 min p.i.), the “% peak 1 (radiometabolite, retention time ~3.5 min)” value stood at 1% and the “% peak 2 (radiometabolite, retention time ~7.5 min)” value was found to be 0%. Further, in data set [3] (NHP plasma, 15 min p.i.), the “% peak 1 (radiometabolite, retention time ~3.5 min)” value came out at 4% and the “% peak 2 (radiometabolite, retention time ~7.5 min)” value worked out at 0%. For the same molecule, in data set [3] (NHP plasma, 30 min p.i.), the “% peak 1 (radiometabolite, retention time ~3.5 min)” value is 7% and the “% peak 2 (radiometabolite, retention time ~7.5 min)” value came to 1%. Further, in data set [3] (NHP plasma, 60 min p.i.), the “% peak 1 (radiometabolite, retention time ~3.5 min)” value amounted to 19% and the “% peak 2 (radiometabolite, retention time ~7.5 min)” value is given as 5%. Moreover, in data set [3] (NHP plasma, 90 min p.i.), the “% peak 1 (radiometabolite, retention time ~3.5 min)” value worked out at 32% and the “% peak 2 (radiometabolite, retention time ~7.5 min)” value amounted to 9%. Further, the “radioactivity of arterial blood found in the plasma” value in data set [3] was 65–75%.

For `Cn1cc(-c2ccncc2)c(-c2ccc(OCc3ccc4ccccc4n3)cc2)n1` [[^11C]MP-10], the brain uptake in data set [4] (5 min p.i.) was 0.162 ± 0.025 %ID/g; in data set [4] (30 min p.i.) it was 0.066 ± 0.008 %ID/g; in data set [4] (60 min p.i.), […].

For the molecule `Cn1cc(-c2ccncc2)c(-c2ccc(OCc3ccc4ccccc4n3)cc2)n1` [MP-10, 2-[4-(1-methyl-4-pyridin-4-yl-1H-pyrazol-3-yl)-phenoxymethyl]-quinoline], the PDE10A selectivity in the data set on PDE10A [5] was […]. Moreover, in the data set on PDE10A [5] (read-out: PDE10A IC50), the pIC50 was […].

As for `Cn1cc(-c2ccncc2)c(-c2ccc(OCc3nc4ccccc4cc3OCC[18F])cc2)n1` [[^18F]20a, 3-((2-Fluoro-^18F)ethoxy)-2-((4-(1-methyl-4-(pyridin-4-yl)-1H-pyrazol-3-yl)phenoxy)methyl)-quinoline], the “ratio of activity in the striatum versus nontarget brain regions” value on PDE10A [1] is over 2 fold. In addition, the “in vivo metabolic defluorination (bone activity)” value in “Biodistribution in rats” is “appeared more stable to in vivo defluorination”. In the data set “Biodistribution in rats” (5 min p.i.), this molecule gave a blood uptake of 0.343 ± 0.061 %ID/g, a bone uptake of 0.182 ± 0.003 %ID/g, a brain uptake of 0.092 ± 0.011 %ID/g and a fat uptake of 0.119 ± 0.021 %ID/g. In “Biodistribution in rats” (5 min p.i.), this molecule displayed a kidney uptake of 1.789 ± 0.332 %ID/g, a liver uptake of 4.24 ± 0.74 %ID/g and a muscle uptake of 0.166 ± 0.017 %ID/g. In the data set “Biodistribution in rats” (30 min p.i.), this molecule came in with a blood uptake of 0.306 ± 0.016 %ID/g, a bone uptake of 0.144 ± 0.006 %ID/g, a brain uptake of 0.129 ± 0.005 %ID/g and a fat uptake of 0.202 ± 0.023 %ID/g. In the data set “Biodistribution in rats” (30 min p.i.), this molecule returned a kidney uptake of 1.022 ± 0.103 %ID/g, a liver uptake of 3.17 ± 0.55 %ID/g and a muscle uptake of 0.156 ± 0.014 %ID/g. Moreover, in “Biodistribution in rats” (60 min p.i.), the blood uptake was 0.287 ± 0.010 %ID/g, the bone uptake amounted to 0.224 ± 0.015 %ID/g, the brain uptake is on record as 0.149 ± 0.013 %ID/g and the fat uptake is 0.124 ± 0.011 %ID/g. In addition, in the data set “Biodistribution in rats” (60 min p.i.), the kidney uptake turned out to be 0.841 ± 0.087 %ID/g, the liver uptake was found to be 1.80 ± 0.62 %ID/g and the muscle uptake turned out to be 0.134 ± 0.009 %ID/g. For the same molecule, the “ratios of uptake in the striatum vs nontarget brain regions” value in the data set with PDE10A [2] (cynomolgus macaque microPET) is on record as over 3 fold. Besides, the “target:nontarget ratios” value in the data set with PDE10A [2] (cynomolgus macaque microPET, by 70 min p.i.) is on record as over 5 fold. Further, in the data set with PDE10A [2], the “visualization of striatum in microPET” value is given as “clear visualization of the PDE10A-enriched striatum”. Moreover, in data set [3] (NHP plasma, 2 min p.i.), the “% peak 1 (radiometabolite, retention time ~3.5 min)” value amounted to 0% and the “% peak 2 (radiometabolite, retention time ~7.5 min)” value turned out to be 0%. In data set [3] (NHP plasma, 15 min p.i.), the “% parent” value was over 90%; the “% peak 1 (radiometabolite, retention time ~3.5 min)” value amounted to 6%; the “% peak 2 (radiometabolite, retention time ~7.5 min)” value was 2%. Also, in data set [3] (NHP plasma, 30 min p.i.), the “% peak 1 (radiometabolite, retention time ~3.5 min)” value was 15% and the “% peak 2 (radiometabolite, retention time ~7.5 min)” value was 8%. In data set [3] (NHP plasma, 60 min p.i.), the “% peak 1 (radiometabolite, retention time ~3.5 min)” value was found to be 29% and the “% peak 2 (radiometabolite, retention time ~7.5 min)” value amounted to 14%. For the same molecule, in data set [3] (NHP plasma, 90 min p.i.), the “% peak 1 (radiometabolite, retention time ~3.5 min)” value amounted to 39% and the “% peak 2 (radiometabolite, retention time ~7.5 min)” value is on record as 14%. Further, the “radioactivity of arterial blood found in the plasma” value in data set [3] was 65–75%.

In general, pIC50 refers to the negative decadic logarithm of the IC50, by convention in mol/L.

(Values after PMC4697445 (Journal of medicinal chemistry, 2015).)
